15 molecules from ChEMBL document CHEMBL1777683, “Identification of plasmepsin inhibitors as selective anti-malarial agents using ligand based drug design” (Bioorg Med Chem Lett, 2011) can be followed below.

The subject of experiment [1] is Plasmodium falciparum. Put plainly: Antimalarial activity against Plasmodium falciparum 3D7 infected in RBC assessed as parasite-specific lactate dehydrogenase release at 16 uM. The experiment is classed as functional.
Experiment [2] concerns Plasmodium falciparum. Put plainly: Antimalarial activity against Plasmodium falciparum 3D7 infected in RBC assessed as parasite-specific lactate dehydrogenase release. The experiment is classed as functional, organism-based.
Experiment [3] is described as follows: Inhibition of Plasmodium falciparum plasmepsin 4 using DABCYL-Glu-Arg-Nle-Phe-Leu- Ser-Phe-Pro-EDANS fluorogenic substrate by fluorogenic assay.
The target of experiment [4] is Cathepsin D (Homo sapiens) (UniProt P07339). Put plainly: Inhibition of human liver Cathepsin D using KPIEF(nF)RL chromogenic substrate at 5 uM by absorbance assay.
In experiment [5] the target is Plasmepsin II (Plasmodium falciparum, UniProt P46925). Put plainly: Inhibition of Plasmodium falciparum plasmepsin 2 using DABCYL-Glu-Arg-Nle-Phe-Leu- Ser-Phe-Pro-EDANS fluorogenic substrate by fluorogenic assay.
Experiment [6] has as its system Plasmodium falciparum. In words: Inhibition of Plasmodium falciparum plasmepsin 4 using DABCYL-Glu-Arg-Nle-Phe-Leu- Ser-Phe-Pro-EDANS fluorogenic substrate at 5 uM by fluorogenic assay.
Experiment [7] has as its target Plasmepsin II (Plasmodium falciparum) (UniProt P46925). In words: Inhibition of Plasmodium falciparum plasmepsin 2 using DABCYL-Glu-Arg-Nle-Phe-Leu- Ser-Phe-Pro-EDANS fluorogenic substrate at 5 uM by fluorogenic assay.

pIC50, pKi: −log10 of the molar value.

Chain of Plasmepsin II (P46925 whole entry): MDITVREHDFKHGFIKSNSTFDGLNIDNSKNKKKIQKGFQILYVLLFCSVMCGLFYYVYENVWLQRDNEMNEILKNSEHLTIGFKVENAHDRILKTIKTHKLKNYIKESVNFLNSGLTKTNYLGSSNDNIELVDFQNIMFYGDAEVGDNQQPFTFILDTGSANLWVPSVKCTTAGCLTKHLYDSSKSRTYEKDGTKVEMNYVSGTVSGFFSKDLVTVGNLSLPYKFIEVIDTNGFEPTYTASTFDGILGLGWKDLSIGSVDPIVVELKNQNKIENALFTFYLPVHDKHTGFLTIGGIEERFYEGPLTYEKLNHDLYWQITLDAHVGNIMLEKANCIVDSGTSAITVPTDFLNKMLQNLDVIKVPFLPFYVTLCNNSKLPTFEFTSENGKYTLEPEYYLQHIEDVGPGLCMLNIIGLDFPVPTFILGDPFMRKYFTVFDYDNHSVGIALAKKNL
Chain of Cathepsin D (Homo sapiens) (P07339 65-162 limits assumed): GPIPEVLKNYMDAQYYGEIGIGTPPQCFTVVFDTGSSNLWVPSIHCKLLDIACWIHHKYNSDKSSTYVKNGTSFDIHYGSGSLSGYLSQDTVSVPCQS
Chain of Cathepsin D (Homo sapiens) (P07339 169-412 limits assumed): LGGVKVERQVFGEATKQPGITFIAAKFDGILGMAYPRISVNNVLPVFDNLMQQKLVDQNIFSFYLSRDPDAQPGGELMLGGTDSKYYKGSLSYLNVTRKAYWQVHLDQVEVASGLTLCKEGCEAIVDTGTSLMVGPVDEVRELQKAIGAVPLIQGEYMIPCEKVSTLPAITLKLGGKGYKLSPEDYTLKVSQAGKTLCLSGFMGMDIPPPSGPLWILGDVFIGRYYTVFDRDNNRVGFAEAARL
Chain of Plasmepsin II (Plasmodium falciparum) (P46925 125-453 limits assumed): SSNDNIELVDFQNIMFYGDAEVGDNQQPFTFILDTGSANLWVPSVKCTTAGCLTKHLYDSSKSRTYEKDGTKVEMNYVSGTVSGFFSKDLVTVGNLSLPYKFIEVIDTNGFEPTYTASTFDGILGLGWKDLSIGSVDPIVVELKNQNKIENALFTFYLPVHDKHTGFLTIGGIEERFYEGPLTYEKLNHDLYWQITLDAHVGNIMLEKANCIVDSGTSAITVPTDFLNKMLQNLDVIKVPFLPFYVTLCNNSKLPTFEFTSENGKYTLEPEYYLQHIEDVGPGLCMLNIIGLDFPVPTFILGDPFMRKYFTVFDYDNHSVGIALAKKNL

As usually defined, the inhibition is how much of the control response was suppressed. As for `COc1ccc(-c2cc(-c3ccc(Cl)cc3)c(C#N)c(S[C@H](C)C(=O)Nc3ccc(C(C)=O)cc3)n2)cc1`, the inhibition at 16 µM in experiment [1] amounted to 32%.
As a reminder, the pIC50 is the IC50 on a negative log10 scale, so that one unit is a factor of ten. The term pKi denotes −log10 of the Ki, conventionally taken in molar units. A higher pKi goes with a low Ki. Consider `CCN(CC)C(=O)c1sc(NC(=O)c2cc(-c3cccc(C)c3)nc3ccccc23)c(C(=O)OC)c1C`, for which the pIC50 was 5.35 in experiment [2], 5.59 in experiment [3] and 5.60 in experiment [5]. The results for the negative logarithm of the Ki (pKi) in experiment [3] and in experiment [5] were 5.60 and 5.70, respectively. This molecule returned an inhibition in experiment [4] of 20%.
In the case of `COC(=O)CCC(=O)N(CCN(Cc1ccccc1)C(=O)CCC(=O)OC)Cc1ccccc1`, the pIC50 in experiment [2] is 5.28; in experiment [3], 5.05; in experiment [5], 5.00. Also, the inhibition in experiment [4] is 35%. The molecule also had a pKi in experiment [5] of 5.15.
As for `COc1ccc(Cl)cc1NC(=O)c1sc2nc(-c3ccccc3)cc(-c3ccc(OCc4ccccc4)c(OC)c3)c2c1N`, the values for the negative logarithm of the IC50 (pIC50) in experiment [2], in experiment [3] and in experiment [5] were 5.64, 5.21 and 5.64, respectively. Further, the negative-log Ki (pKi) in experiment [3] is 5.27; in experiment [5], 5.80. In experiment [4], the inhibition was 12%.
On to `CC(C)CCNC(=O)[C@H](c1c[nH]c2ccccc12)N(C(=O)c1snc(C(N)=O)c1N)c1ccc2c(c1)OCO2`, for which the results for the negative-log IC50 (pIC50) in experiment [2], in experiment [3] and in experiment [5] were 5.66, 4.59 and 4.67, respectively. Moreover, the pKi was 4.70 in experiment [3] and 4.97 in experiment [5]. This molecule showed an inhibition in experiment [4] of 12%.
`CCCCc1ccc(-c2cc(C(=O)Nc3scc(-c4cccnc4)c3C(=O)OC)c3cc(Br)ccc3n2)cc1`: in experiment [2], the negative-log IC50 (pIC50) was 5.91.
For the molecule `O=C(NCCNC(=O)/C(=C\c1ccco1)NC(=O)c1ccccc1)/C(=C/c1ccco1)NC(=O)c1ccccc1`, in experiment [2], the pIC50 is 4.92.
Consider `CCOC(=O)c1ccc(/N=C2\S/C(=C\c3ccc(C(C)(C)C)cc3)C(=O)N2c2ccc(C(=O)OCC)cc2)cc1`, for which the values for the pIC50 in experiment [2], in experiment [3] and in experiment [5] were 5.30, 5.43 and 5.21, respectively. Moreover, the pKi in experiment [3] is 5.49; in experiment [5], 5.40. Also, the inhibition in experiment [4] amounted to 15%.
With `CCOc1ccc(N(C(=O)c2snc(C(=O)NC3CCCCC3)c2N)[C@H](C(=O)NCCc2ccccc2)c2ccc(OC)cc2)cc1`, the inhibition in experiment [6] was 20%; in experiment [7], 30%; in experiment [4] it was 20%. The pIC50 in experiment [2] was 6.46.
Regarding `CCN(CC)c1ccc(/C=N/NC(=O)CSc2nc3ccccc3n2Cc2ccc(Cl)cc2)cc1`, the pIC50 in experiment [2] was 5.66; in experiment [3] it was 6.21; in experiment [5], 5.62. Further, the values for the negative-log Ki (pKi) in experiment [3] and in experiment [5] were 6.33 and 5.92, respectively. This molecule displayed an inhibition in experiment [4] of 10%.
For the molecule `COc1ccc([C@@H](C(=O)NC2CCCC2)N(C(=O)c2snc(C(N)=O)c2N)c2ccc(OC)cc2)cc1`, the pIC50 in experiment [2] is 4.60.
Turning to `CCOc1cccc(-c2cc(C(=O)N/N=C/c3ccc(OC)c(CN4CCSCC4)c3)c3ccccc3n2)c1`, the negative-log IC50 (pIC50) in experiment [2] was 4.40.
In the case of `CCCCOc1cccc(-c2cc(C(=O)N/N=C(\C)c3cccc(NC(=O)C(C)(C)C)c3)c3ccccc3n2)c1`, the results for the negative-log IC50 (pIC50) in experiment [2], in experiment [3] and in experiment [5] were 5.43, 4.82 and 4.94, respectively. Also, the negative-log Ki (pKi) is 4.89 in experiment [3] and 5.10 in experiment [5]. This molecule showed an inhibition in experiment [4] of 12%.
As for `CCCCOc1ccc(-c2cc(C(=O)N/N=C(\C=C\c3ccc4c(c3)OCO4)c3ccc(OC)cc3)c3ccccc3n2)cc1`, the negative-log IC50 (pIC50) in experiment [2] was 4.62.
With `Cc1ccc(NC(=S)N(Cc2ccc3c(c2)OCO3)Cc2cc3cccc(C)c3[nH]c2=O)cc1`, the values for the negative logarithm of the IC50 (pIC50) in experiment [2], in experiment [3] and in experiment [5] were 5.02, 5.20 and 5.15, respectively. The pKi is 5.26 in experiment [3] and 5.34 in experiment [5]. For the same molecule, in experiment [4], the inhibition is 35%.
